{"source": "patent US11419902B2", "about": "“Compositions comprising bacterial strains” (4D Pharma Research Limited, priority 2018, dated 2022)", "key": {"PBMCs [1]": {"tested_on": "PBMCs", "assay": "Cytokine analysis of PBMCs from healthy donors (multiplex immunoassay)", "type": "cell-based, human", "details": "PBMC culture, 10% bacteria supernatant, 72 h", "experimental": "(§1) Frozen healthy human PBMCs were purchased from Stem Cells Technologies (Cambridge UK). Briefly cells were thaw and left to rest overnight in full growth media (RPMI 1640 with 10% FBS, 2 mM L. Glutamine, 55 μM 2-Mercapoethanol and 100 U/ml penicillin, 100 μg/ml streptomycin) in CO2 incubator at 37° C. For the experiment cells were plated at a density of 750,000 Cell/well in 48 well plates and treated in full growth media with 10% bacteria supernatants in the presence or absence of 1 ng/ml LPS. Cell culture media was added to untreated wells. Cells were left to rest for 72 h, thereafter cell free supernatants were collected and spun down for 3 minutes at 10,000 g at 4° C. Samples were stored at −80° C. for cytokine analysis.\nPBMCs were treated as described in Example 5.\nCytokine quantification was conducted using a ProcartaPlex multiplex immunoassay following the manufacturer's recommendations (Thermo Fischer Scientific). Briefly, 50 μl of cell-free co-culture supernatants were used for cytokine quantification using a MAGPIX® MILLIPLEX® system (Merck) with the xPONENT software (Luminex, Austin, Tex., USA). Data was analysed using the MILLIPLEX® analyst software (Merck) using a 5-parameter logistic curve and background subtraction to convert mean fluorescence intensity to pg/ml values."}, "PBMCs [2]": {"tested_on": "PBMCs", "assay": "Basic cell phenotyping on PBMCs from healthy donors (flow cytometry)", "type": "cell-based", "experimental": "as §1\n1.5×10^6 cells per sample were stained with viability fixable dye (Miltenyi) to discriminate between live and dead cells for 10 min at RT. Afterwards the cells were stained with the cocktail of antibodies listed below (Miltenyi) for basic immunophenotyping (CD3/CD4/CD8/CD25/CD127 and CD19) and incubated for 10 min at RT.\nExperiments were carried out to measure the percentage of the following cell populations: • CD4+CD3+ cells (markers of CD4 T-helper cells) • CD4+CD25+ cells (markers of CD4+ activated cells) • CD25++[…] cells out of the CD4+ cell population (markers of Tregs cells) • CD8+CD3+ cells (markers of cytotoxic T cells) • CD25+CD8+ cells (markers of CD8+ activated cells) • CD19+CD3− cells (markers of B cells).\nThe ratio of CD8+/Tregs and the ratio of activated CD8/Treg cells were determined.\nFlow cytometry analysis of different cell populations 1.5×10^6 cells per sample were stained with viability fixable dye (Miltenyi) to discriminate between live and dead cells for 10 min at RT. Afterwards the cells were stained with the cocktail of antibodies listed below (Miltenyi) for basic immunophenotyping (CD3/CD4/CD8/CD25/CD127 and CD19) and incubated for 10 min at RT. Cells were then washed and resuspended in PBS and immediately analysed using a FACS Aria II equipped with Blue (488 nm), Red (633 nm) and Violet (405 nm) lasers. FMOs were included throughout all the experiments. For the analysis Flowjo version 10.4.2 software (FlowJo, LLC) was used."}, "IL-8 [3]": {"tested_on": "IL-8", "assay": "IL-8 secretion in HMC3 cells (ELISA)", "type": "cell-based, Human", "details": "10% cell-free supernatant 24 h, in the absence of stimulation (no TNF-α)", "experimental": "Human microglia HMC3 cells were grown in glutamine-supplemented EMEM media containing 15% heat inactivated FBS and 100 U/ml penicillin and 100 μg/ml streptomycin. HMC3 cells were plated in 24 well plates at a density of 50,000 cells/well. Cells were left in CO2 incubator to rest for 48 h. The cells were then washed in blank EMEM and pre-treated in 2% FBS growth media with 10 ng/ml TNF-α for 1 h. Thereafter 10% cell-free bacterial supernatants for NCIMB 42787 stationary growth cultures (isolated as described above) were added to TNF-α-treated and untreated wells and incubated in CO2 incubator at 37° C. for 24 h. Cell-free supernatants were collected and centrifugated at 10,000×g for 3 min and 4° C. Samples were aliquoted in 1.5 ml microtubes and stored in −80° C. for hIL-8 ELISA.\nSecretion of IL-8 was analysed using hIL-8 Standard ELISA Kits, according to the manufacturer's protocol in the cell-free supernatants from HMC3 cells treated as described above. Samples were measured at 405 nm with correction wavelength set at 655 nm on a microplate reader (iMark, Bio-Rad). Raw data were plotted and analysed using GraphPad Prism 7 software."}, "IL-8 [4]": {"tested_on": "IL-8", "assay": "IL-8 secretion by differentiated HT29-mtx cells", "type": "cell-based", "details": "24 h, vs untreated and YCFA+-treated cells", "description": "The ability of MRx0029 to cause any intestinal barrier dysfunction was investigated. HT29-mtx epithelial, mucin-producing cell monolayers were used as an in vitro model to evaluate gut barrier disruption and immune stimulation following treatment with MRx0029."}, "[5]": {"tested_on": "ERK signalling (phosphorylated ERK1 and 2/total ERK)", "assay": "ERK signalling in SKMEL28 cell line (Western blot)", "type": "cell-based", "details": "SKMEL28, relative to the negative control (YFCA+)", "experimental": "Following 24 h treatment with the appropriate drugs either in presence of 10% bacterial supernatant or absence (YCFA+), protein extracts were obtained by lysing cells in RIPA buffer (R0278; Sigma Aldrich) supplemented with protease inhibitors (cOmplete Protease Inhibitor Cocktail Tablets; Roche, Switzerland) and 1 mM/L sodium orthovanadate, 0.5 mM/L PMSF. Protein quantification was done by the BCA protein assay. Equal amounts of total protein (20 μg/lane) were then separated by SDS-PAGE on 4-15% gradient gel (BioRad) and transferred to polyvinylidene difluoride (PVDF) membranes (Thermo Fisher Scientific, Loughborough). […]\nProteins of interest were detected with the appropriate HRP-conjugated secondary antibody (1:10,000, Thermo Fisher Scientific, Loughborough), developed with the ECL Western blotting Super Signal PicoPlus substrate (34577; Thermo Fisher Scientific, Loughborough), and visualised in Chemidoc XRS Imager (BioRad).\nThe effects of the following treatments were assessed on the SKMEL28 melanoma cell line (V600E oncogenic mutation in BRAF): (1) MRx0029; (2) Vemurafenib (VEMU) in YCFA+ medium; (3) VEMU and MRx0029; (4) Azacytidine-C (Aza-c) in YCFA+ medium; (5) Aza-c and MRX0029; (6) VEMU, Aza-c and MRx0029."}}}
{"substance": "Megasphaera massiliensis MRx0029", "values": [{"measurement": "expression of IL-1β", "setting": "PBMCs [1]", "value": "increased the expression"}, {"measurement": "expression of IL-6", "setting": "PBMCs [1]", "value": "increased the expression"}, {"measurement": "expression of IL-10", "setting": "PBMCs [1]", "value": "increased the expression"}, {"measurement": "expression of IL-23", "setting": "PBMCs [1]", "value": "increased the expression"}, {"measurement": "expression of MIP-3α", "setting": "PBMCs [1]", "value": "increased the expression"}, {"measurement": "expression of TNF-α", "setting": "PBMCs [1]", "value": "increased the expression"}, {"measurement": "percentage of B cells", "setting": "PBMCs [2]; 10% bacteria supernatant, 72 h", "value": "did not significantly change"}, {"measurement": "percentage of CD4+ activated cells", "setting": "PBMCs [2]; 10% bacteria supernatant, 72 h", "value": "did not significantly change"}, {"measurement": "percentage of CD4 T-helper cells", "setting": "PBMCs [2]; 10% bacteria supernatant, 72 h", "value": "did not significantly change"}, {"measurement": "percentage of CD8+ activated cells", "setting": "PBMCs [2]; 10% bacteria supernatant, 72 h", "value": "did not significantly change"}, {"measurement": "percentage of CD25++CD17− cells (Tregs)", "setting": "PBMCs [2]; 10% bacteria supernatant, 72 h", "value": "selectively reduced the percentage of Tregs"}, {"measurement": "percentage of cytotoxic T cells", "setting": "PBMCs [2]; 10% bacteria supernatant, 72 h", "value": "did not significantly change"}, {"measurement": "ratio of CD8+/Tregs", "setting": "PBMCs [2]; vs untreated cells", "value": "increased the ratio of CD8+/Tregs"}, {"measurement": "ratio of activated CD8/Treg cells", "setting": "PBMCs [2]; vs untreated cells", "value": "increased"}, {"measurement": "IL-8 secretion", "setting": "IL-8 [3]", "value": "induces IL-8 secretion"}, {"measurement": "secretion of IL-8", "setting": "IL-8 [4]", "value": "even lower secretion of IL-8"}, {"measurement": "ERK signalling", "setting": "[5]", "value": "reduced ERK signalling"}]}
